Values quoted from earlier work, collected in patent US20190117669A1, “Methods for Treating NSAID-Induced Cardiovascular, Cerebrovascular, or Renovascular Adverse Events” (University of Utah Research Foundation, priority 2016, published 2019).

What was measured:
[1] = rats, all misoprostol-treated groups
[2] = dogs, misoprostol 3 mcg/kg every 8 hours for 8 days

In the case of `CCCCC(C)(O)C/C=C/[C@H]1[C@H](O)CC(=O)[C@@H]1CCCCCCC(=O)OC` (mixture of isomers) [misoprostol], the blood pressure [1] is given as “increased” and the “azotemia, hyperphosphatemia and renal histopathologic changes versus gentamicin alone” value [2] is given as “more severe azotemia, hyperphosphatemia, and renal histopathologic changes”.
